Values after ≈ are worked out from the molar mass of the structure shown.
Test system: CD4+ T cells
Experiment: in vitro T-cell activity assay (CD4+ T cell proliferation by CTV intensity, flow cytometry)
Format: cell-based, B6J mice
Details: CD3/CD28-activated mouse spleen CD4+ T cells, 72 hours culture; for IC50: Mus musculus, CD4+ T, 72 h, read-out: Immunosuppression IC50
Excerpt: The degree of decrease in immunosuppressive activity of the four novel compounds was investigated by using the conventional in vitro T-cell activity assay (J. Immunol. 143: 718-726, 1989). The division of CD4+ T cells is an indicator that an immune response is taking place, and when CD4+ T cells are stained with Cell Trace™ Violet (CTV) and the cells divide according to the immune response and the T cells proliferate, a phenomenon in which the CTV retention of each cell decreases appears, and thus, the degree of immunosuppressive activity was investigated using this as an indicator.
Single cells were isolated from the spleen of 6 to 8 week-old B6J mice, and CD4+ T cells were isolated using the MagniSort® Mouse CD4 T cell Enrichment Kit (eBioscience). CD4+ T cells were stained with Cell Trace™ Violet (CTV) Cell Proliferation Kit (Molecular Probes), and FK506 or the four novel compounds were added to a concentration of 0.01 ng/mL, 0.1 ng/mL, 1 ng/mL, 10 ng/mL, 100 ng/mL or […], and then, it was cultured for 72 hours. Dynabeads® Mouse T-Activator CD3/CD28 (Gibco) was used for T cell activation. As a control group, non-activated T cells were used. After culture, CTV intensity was analyzed by flow cytometry.

| SMILES | IC50 [µg/mL] | Immunosuppression IC50 [µg/mL] |
| --- | --- | --- |
| C=CC[C@@H]1/C=C(\C)C[C@H](C)C[C@H](OC)[C@H]2O[C@@](O)(C(=O)C(=O)N3CCCC[C@H]3C(=O)O[C@H](/C(C)=C/[C@@H]3CC[C@@H](O)[C@H](OC)C3)[C@H](C)[C@@H](O)CC1=O)[C@H](C)C[C@@H]2OC [FK506] | 2.7e-05 (≈ 3.36e-05 µM) | – |
| CCC[C@@H]1/C=C(\C)C[C@H](C)C[C@H](OC)[C@H]2O[C@@](O)(CC(=O)N3CCC[C@H]3C(=O)O[C@H](/C(C)=C/[C@@H]3CC[C@@H](O)[C@H](OC)C3)[C@H](C)[C@@H](O)CC1=O)[C@H](C)C[C@@H]2OC [9-deoxo-36,37-dihydro-prolylFK506] | 3.09 (≈ 3.97 µM) | – |
| CC[C@@H]1/C=C(\C)C[C@H](C)C[C@H](OC)[C@H]2O[C@@](O)(CC(=O)N3CCC[C@H]3C(=O)O[C@H](/C(C)=C/[C@@H]3CC[C@@H](O)[C@H](O)C3)[C@H](C)[C@@H](O)CC1=O)[C@H](C)C[C@@H]2OC [9-deoxo-prolylFK520] | – | 3.2888 |
| CCC[C@@H]1/C=C(\C)C[C@H](C)C[C@H](OC)[C@H]2O[C@@](O)(CC(=O)N3CCC[C@H]3C(=O)O[C@H](/C(C)=C/[C@@H]3CC[C@@H](O)[C@H](O)C3)[C@H](C)[C@@H](O)CC1=O)[C@H](C)C[C@@H]2OC [9-deoxo-31-O-demethyl-36,37-dihydro-prolylFK506] | 5.56 (≈ 7.27 µM) | – |

From US20230094227A1, “NOVEL FK506 DERIVATIVE AND COMPOSITION COMPRISING SAME FOR PROMOTING HAIR GROWTH” (SEOUL NATIONAL UNIVERSITY R&DB FOUNDATION, priority 2020, published 2023)
